{
  "source": "patent US9851354B2",
  "about": "“Methods of treating fragile X syndrome and related disorders” (Alcobra Ltd., priority 2013, dated 2017)",
  "key": {"[1]": {"tested_on": "Fmr1 knockout (KO) or Wild Type (WT) mice", "assay": "Social approach (sniffing of a juvenile, Trial 1)", "type": "in vivo, mouse", "conditions": "for social approach (sniffing bouts) / social approach, duration of sniffing: 2 months old; for social approach (sniffing bouts): Study 1; for social approach, duration of sniffing: Study 2; for duration of sniffing, Trial 1: 150 mg/kg ip 7 days", "protocol": "(§1) Fmr1 knockout mice (KO2) mice (The Dutch-Belgium Fragile X Consortium, 1994), initially obtained from the Jackson Laboratory, and wild type (WT) littermates were generated on a C57BL/6J background and repeatedly backcrossed onto a C57BL/6J background for more than eight generations. The Fmr1 knockout mice were housed in groups of the same genotype in a temperature and humidity controlled room with a 12-h light-dark cycle (lights on from 7 am to 7 pm; testing was conducted during light phase). Room temperature and humidity were recorded continuously in the holding room while food and water were available ad libitum. Testing was conducted on healthy Fmr1 knockout mice and their wild type littermates (N=10 mice per treatment group) at 2 or 6 months of age during the behavioral experiments. Mice were housed in commercial plastic cages and experiments were conducted in line with the requirements of the UK Animals (Scientific Procedures) Act, 1986. All experiments were conducted with experimenters blind to genotype and drug treatment. Animals were allowed a minimum acclimatization period of one week prior to performing any experiment. No prophylactic or therapeutic treatment was administered during the acclimatization period.\n(§2) In all cases, saline was used as a vehicle (control).\nMice are a social species that engage in easily scored social behaviors including approaching, following, sniffing, grooming, aggressive encounters, sexual interactions, parental behaviors, nesting, and sleeping in a group huddle. Social approach in mice was evaluated by sniffing duration directed to a novel mouse.\n(§3) Mice were placed in a test arena/cage of the same order of magnitude in size as the adult's home cage (40×23×12 cm cage, with a Perspex lid to facilitate viewing the mice) with fresh wood chippings on the floor. A background mouse odor was created by putting in some non-experimental mice into the apparatus prior to testing. Mice were transferred to the experimental room 10-15 min prior to testing. A test subject and a juvenile were placed simultaneously into the test cage. The total duration and number of bouts of social investigation, defined as sniffing and close following (<2 cm from the tail) of the stimulus juvenile by the tested mouse, was assessed for 3 min. 30 min later, the test was repeated using the same stimulus juvenile. Data parameters collected were the total duration and total number of bouts of sniffing for the acquisition and recognition. A social memory ratio was derived, defined as trial 2/trial 1+2. Therefore, no memory (e.g. 20/(20+20)=0.5 and memory (e.g. 10/(20+10)=<0.5.\n(§4) Multivariate analysis of variance was employed to assess group differences across data. Repeated measures ANOVA were performed for behavioral data. Statistically significant effects in each ANOVA were followed with post hoc comparisons, using the Newman-Keuls test (Study 1) or the Tukey test (Study 2). A p value of less than 0.05 was considered significant."}, "[2]": {"tested_on": "Fmr1 knockout (KO) or Wild Type (WT) mice", "assay": "Social recognition memory (Trial 2, social memory ratio)", "type": "in vivo, mouse", "conditions": "for social memory, duration of sniffing: 2 months old, Study 2; for duration of sniffing, Trial 2: 150 mg/kg ip 7 days", "protocol": "as §1, §2, §3, §4\nSocial memory ratio was defined as the duration of sniffing bouts: trial 2/trial 1+2. Therefore, an example of no memory was (e.g. 20/(20+20)=0.5, while an example of memory was (e.g. 10/(20+10)=<0.5."}, "ERK [3]": {"tested_on": "ERK", "assay": "Brain phosphorylation of ERK (western blot)", "type": "in vivo, mouse", "protocol": "as §2\n(§5) The Ras-Mek-ERK and PI3K-Akt-mToR signaling pathways are involved in mediating activity dependent alterations in gene transcription underlying changes in synaptic plasticity (Klann and Dever, 2004). Phosphorylated ERK and Akt protein expression was measured by western blot analysis as previously described by Lopez Verrilli (Lopez Verrilli et al., 2009). The antibodies employed were anti-phosphospecific antibodies against Akt (1/1000) and kinase (ERK) 1/2 (1/2000) (Cell Signaling Technology, Danvers, Mass., USA). The antibody against phospho-ERK detects phosphorylation at phospho-ERK 1/2 (Thr202/Tyr204) whereas the antibody against phospho-Akt detects phosphorylation at phospho-Akt (Thr308). Total Akt and ERK 1/2 protein content and phosphorylated ERK and Akt were evaluated by blotting membranes with antiphospho-Akt (1/1000) and antiphospho-ERK antibodies (1/2000) (Cell Signaling Technology, Danvers, Mass., USA). Akt or ERK phosphorylation was normalized to protein content in the same sample and expressed as % of change with respect to basal conditions, considering basal levels as 100%. Protein loading was evaluated by stripping and re-blotting membranes with j-actin antibody (1/1000) (Sigma-Aldrich, St. Louis, Mo., USA). Phosphorylated ERK and Akt protein expression in blood lymphocytes was measured by flow cytometry. For lymphocyte biomarker determinations, a FACStar plus (Becton Dickinson) was used with the excitation laser tuned at 488 nm and green fluorescence from FITC (GST) was collected through a 515-545 nm bandpass filter. The mean FITC fluorescence Intensity was calculated in relation to the fluorescence of reference cells. The mean cellular fluorescence intensity (MFI) is directly proportional to the mean number of Ab molecules bound per cell."}, "Akt": {"tested_on": "Akt", "assay": "Brain phosphorylation of Akt (western blot)", "type": "in vivo, mouse", "protocol": "as §2, §5"}, "ERK [4]": {"tested_on": "ERK", "assay": "Lymphocyte pERK (flow cytometry)", "type": "in vivo, mouse", "conditions": "Fmr1 KO mice, 2 months old", "protocol": "as §2, §5"}, "[5]": {"conditions": "cited from earlier work"}, "[6]": {"conditions": "Fmr1 KO mice, 150 mg/kg ip once daily 7 days"}, "[7]": {"conditions": "Fmr1 KO mice, 150 mg/kg oral once daily 7 days"}, "[8]": {"conditions": "Fmr1 KO mice, 300 mg/kg oral once daily 7 days"}, "[9]": {"conditions": "Fmr1 KO mice, 6 months old, 150 mg/kg ip once daily 7 days"}, "[10]": {"conditions": "KO-M: Fmr1 KO mice, 6 months old"}, "[11]": {"conditions": "WT mice, any dose (150 mg/kg ip, 150 and 300 mg/kg oral)"}, "[12]": {"conditions": "WT mice, 6 months old, 150 mg/kg ip once daily 7 days"}, "[13]": {"conditions": "Fmr1 KO mice, 2 months old, 150 mg/kg ip 7 days, Study 2"}, "[14]": {"conditions": "WT mice, 2 months old, 150 mg/kg ip 7 days, Study 2"}, "[15]": {"conditions": "WT mice, 2 months old, 150 mg/kg ip once daily 7 days, Study 1"}, "[16]": {"conditions": "any mice (KO or WT), 2 months old, 150 mg/kg ip once daily 7 days, Study 1"}},
  "note": "“Also recorded” adds a separate entry of the source.",
  "data": [
    {"smiles": "Cc1ncc(CO)c(CO)c1O.O=C1CC[C@@H](C(=O)O)N1", "note": "[metadoxine, pyridoxol L,2-pyrrolidon-5 carboxylate]", "values": [
      {"measurement": "social approach (sniffing bouts)", "setting": "[1]; Fmr1 KO mice, 150 mg/kg ip once daily 7 days, 150 mg/kg", "result": "increased social approach in Fmr1 knockout mice; also recorded: improved social interaction"},
      {"measurement": "social approach, duration of sniffing", "setting": "[1]; [6]", "result": "reversal was complete"},
      {"measurement": "social approach, duration of sniffing", "setting": "[1]; [7]", "result": "reversal was complete"},
      {"measurement": "social approach, duration of sniffing", "setting": "[1]; [8]", "result": "reversal was complete"},
      {"measurement": "social approach, duration of sniffing (Trial 1)", "setting": "[1]; [9]", "result": "this effect was partial"},
      {"measurement": "social approach, number of sniffing bouts (Trial 1)", "setting": "[1]; [9]", "result": "did not differ from metadoxine-treated WT mice"},
      {"measurement": "duration of sniffing, Trial 1", "setting": "[1]; [10]", "result": 28.4},
      {"measurement": "social approach (sniffing bouts)", "setting": "[1]; WT mice, 150 mg/kg ip once daily 7 days", "result": "no effect on WT mice"},
      {"measurement": "social approach, duration of sniffing", "setting": "[1]; [11]", "result": "without effect on WT mice"},
      {"measurement": "social approach, sniffing bouts and duration (Trial 1)", "setting": "[1]; [12]", "result": "without effect on WT mice"},
      {"measurement": "duration of sniffing, Trial 1", "setting": "[1]; WT-M: WT mice, 6 months old", "result": 38.5},
      {"measurement": "social memory, duration of sniffing", "setting": "[2]; [6]", "result": "reversal was complete"},
      {"measurement": "social memory, duration of sniffing", "setting": "[2]; [7]", "result": "reversal was complete"},
      {"measurement": "social memory, duration of sniffing", "setting": "[2]; [8]", "result": "reversal was complete"},
      {"measurement": "social memory, duration of sniffing (Trial 2)", "setting": "[2]; [9]", "result": "reversal by metadoxine was complete"},
      {"measurement": "social memory, number of sniffing bouts (Trial 2)", "setting": "[2]; [9]", "result": "reversal for number of sniffing bouts was partial"},
      {"measurement": "duration of sniffing, Trial 2", "setting": "[2]; [10]", "result": 12.7},
      {"measurement": "social memory, duration of sniffing", "setting": "[2]; [11]", "result": "without effect on WT mice"},
      {"measurement": "social memory, sniffing bouts and duration (Trial 2)", "setting": "[2]; [12]", "result": "without effect on WT mice"},
      {"measurement": "duration of sniffing, Trial 2", "setting": "[2]; WT-M: WT mice, 6 months old", "result": 12.5},
      {"measurement": "pERK levels in hippocampus", "setting": "ERK [3]; [13]", "result": "complete reversal of activation of ERK"},
      {"measurement": "pERK levels in pre-frontal cortex", "setting": "ERK [3]; [13]", "result": "effect in pre-frontal cortex was partial"},
      {"measurement": "pERK levels in striatum", "setting": "ERK [3]; [13]", "result": "complete reversal of activation of ERK"},
      {"measurement": "whole brain levels of pERK", "setting": "ERK [3]; [9]", "result": "increase was reversed by metadoxine treatment"},
      {"measurement": "pERK levels in hippocampus, pre-frontal cortex and striatum", "setting": "ERK [3]; [14]", "result": "without effect on WT mice"},
      {"measurement": "whole brain phosphorylation of ERK", "setting": "ERK [3]; [15]", "result": "no effect on phosphorylation of ERK in WT mice"},
      {"measurement": "whole brain total ERK levels", "setting": "ERK [3]; [16]", "result": "no effect"},
      {"measurement": "pAkt levels in hippocampus", "setting": "Akt; [13]", "result": "complete reversal of activation of Akt"},
      {"measurement": "pAkt levels in pre-frontal cortex", "setting": "Akt; [13]", "result": "complete reversal of activation of Akt"},
      {"measurement": "pAkt levels in striatum", "setting": "Akt; [13]", "result": "complete reversal of activation of Akt"},
      {"measurement": "whole brain levels of pAkt", "setting": "Akt; [9]", "result": "reversed this increase in brain pAkt"},
      {"measurement": "pAkt levels in hippocampus, pre-frontal cortex and striatum", "setting": "Akt; [14]", "result": "without effect on WT mice"},
      {"measurement": "whole brain phosphorylated Akt", "setting": "Akt; [15]", "result": "no effect on WT mice"},
      {"measurement": "whole brain total Akt levels", "setting": "Akt; [16]", "result": "no effect"},
      {"measurement": "lymphocyte pERK", "setting": "ERK [4]; 150 mg/kg ip once daily 7 days", "result": "normalized overactivated ERK"},
      {"measurement": "lymphocyte pERK", "setting": "ERK [4]; 150 mg/kg oral once daily 7 days", "result": "normalized overactivated ERK"},
      {"measurement": "lymphocyte pERK", "setting": "ERK [4]; 300 mg/kg oral once daily 7 days", "result": "normalized overactivated ERK"},
      {"measurement": "mean half life", "setting": "[5]; human serum, Lu Yuan et al. 2007", "result": "about 0.8 hour"},
      {"measurement": "half-life in human serum", "setting": "[5]; human serum, no appreciable differences between oral and intravenous administration", "result": "40 to 60", "unit": "min"},
      {"measurement": "oral bioavailability", "setting": "[5]; oral", "result": "60-80%"}
    ]}
  ]
}
